Where two headings read alike, the source gives them in different places.
Tests used:
Assay type in all cases: cell-based
[1] = tested on: peripheral blood mononuclear cell (PBMC); test: Peripheral blood mononuclear cell assay; details: 1h with compound, washed, 15 hour incubation
Experimental: Selected compounds were tested in an in vitro peripheral blood mononuclear cell (PBMC) assay. Freshly isolated PBMCs were seeded into U-shaped shaped 96-well plates at desity 500,000 cells per well in 50 µl of RPMI 1640 medium supplemented with 10% heat inactivated FBS. Serially dilluted tested compounds were added to wells in 50 µl of cultivation medium and cell were incubated with compounds for 1h at 37° C. with 5% CO2. Plates with cells were then spun 500 g for 5 minutes and medium was removed. Cells were washed twice with the cell culture medium by the use of centrifugation and gently resuspended in 100 µl medium without compounds. After 15 hour incubation at 37° C. with 5% CO2, the cell culture medium was collected and the levels of interferon-alpha (INF-α), interferon-gamma (INF-γ) and tumor necrosis factor-alpha (TNF-α) were determined with ProcartaPlex Assays (ThermoFisher, Waltham, USA) and MAGPIX System (Merck KGaA, Darmstadt, Germany).

WT STING [2] = biological target: T1, WT STING (Homo sapiens, UniProt Q86WV6, H232R); test: 293T WT STING standard reporter assay; details: 293T wtSTING-FL cells; 7 hours with compound, no digitonin; ISRE firefly luciferase reporter
From the text: (§1) Two complementary oligonucleotides of the sequence […] […] […] […] […] The oligonucleotides were mixed in equal molar amounts, hybridized, and cleaved by restriction endonucleases HindIII (cat. #. R0104S, NEB, Ipswich, USA) and BglII (cat. # R0144S, NEB, Ipswich, USA). Ultimately, they were ligated into plasmid pGL4.27 (cat. # E6651, Promega, Madison, USA) linearized with the same enzymes. As result the sequence with four ISRE sites was placed upstream of the minimum promoter of firefly luciferase reporter gene.
(§2) After 5 minutes incubation at room temperature (RT), 250 µL of the mixture was added dropwise to the cells in one well. Cells were incubated 36 hours at 37° C. with 5% CO2, and then detached with 0.05% Trypsin and 0.22 g/L EDTA (both cat. # L0941, Biowest, Riverside, USA).
(§3) Transfected cells were seeded onto poly-D-lysine coated six well plates at density 50,000 cells per 1 cm^2 in DMEM medium with high glucose containing 10% heat inactivated FBS, 30 µg/mL blasticidin (cat. # ant-bl-05, InvivoGen, San Diego, USA), 0.06 mg/ml Penicillin G and 0.1 mg/ml Streptomycin Sulfate (both cat. #. L0018, Biowest, Riverside, USA). The medium was replenished every 3 - 4 days until visible colonies of cells resistant to blasticidin were formed.
(§4) Blasticidin resistant cells stably expressing WT STING were further transfected with […] plasmid following the same procedure as described above. […] Homogeneous culture of stably double transfected cells was prepared by limiting dilution of cells in 96 well plates and wells with cells were selected that originated from a single cell.
The medium was removed next day and three-fold serial dilutions of compounds in 100 µl medium were added to the cells. The plates with cells were incubated for 7 hours at 37° C. with 5% CO2. After 50 µl of the medium was removed, 30 µl of ONE-Glo^Tm Luciferase Assay System reagent (cat. # E6120, Promega, Madison, USA) was added to each well and luminescence was read on Synergy H1 (Biotek, Winooski, USA).

WT STING [3] = biological target: T1, WT STING; test: Digitonin assay using 293T wtSTING-FL reporter cells; details: 293T wtSTING-FL cells; 30 minutes in Digitonin buffer, then 5 hours; ISRE firefly luciferase reporter
From the text: as §1, §2, §3, §4
The medium was removed next day and three fold serial dilutions of compounds in Digitonin buffer containing 50 mmol.l^-1 HEPES (cat. # H3375, Sigma Aldrich, Czech Republic) pH 7.0, 100 mmol.1^-1 KCl, 3 mmol.l^-1 MgCl2, 0.1 mmol.l^-1 DTT (cat. # D0632, Sigma Aldrich, Czech Republic), 85 mmol.1^-1 Sucrose (cat. # S7903, Sigma Aldrich, Czech Republic), 0.2% BSA (cat. # A2153, Sigma Aldrich, Czech Republic), 1 mmol.l^-1 ATP (cat. # A1852, Sigma Aldrich, Czech Republic), 0.1 mmol.1^-1 GTP (cat. # G8877, Sigma Aldrich, Czech Republic), and 10 µg/mL Digitonin A (cat. # D141, Sigma Aldrich, Czech Republic) were added to the cells. The buffer was removed after 30 minutes incubation at 37° C. with 5% CO2, the cells were washed once with 100 µl of cultivation medium, and 100 µl of medium was added to each well. The plates with cells were incubated for 5 hours at 37° C. with 5% CO2, 50µl of the medium was removed and 30 µl of ONE-Glo^Tm Luciferase Assay System reagent (cat. # E6120, Promega, Madison, USA) was added to each well. Luminescence was read on Synergy H1 (Biotek, Winooski, USA).

[4] = IFN-α level in medium, read-out: PBMC EC50 IFN-α
[5] = TNF-α level in medium, read-out: PBMC EC50 TNF-α
[6] = PBMC, IFN-γ level in medium, read-out: PBMC EC50 IFN-γ
[7] = PBMC, IFN-α level in medium, read-out: PBMC EC50 IFN-α
[8] = PBMC, TNF-α level in medium, read-out: PBMC EC50 TNF-α

T1 sequence (Q86WV6 whole entry H232R): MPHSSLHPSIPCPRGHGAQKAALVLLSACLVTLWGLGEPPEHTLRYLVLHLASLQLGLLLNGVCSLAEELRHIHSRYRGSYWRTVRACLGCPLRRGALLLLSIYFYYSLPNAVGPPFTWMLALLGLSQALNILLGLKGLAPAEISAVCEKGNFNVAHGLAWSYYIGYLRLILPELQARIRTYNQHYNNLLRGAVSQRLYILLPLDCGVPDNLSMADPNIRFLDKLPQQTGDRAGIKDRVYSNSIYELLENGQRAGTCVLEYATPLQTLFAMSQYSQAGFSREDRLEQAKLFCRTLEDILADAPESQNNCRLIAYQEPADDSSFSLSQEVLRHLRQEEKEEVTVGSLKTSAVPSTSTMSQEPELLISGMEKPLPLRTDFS

Row | Molecule | EC50 [1, 4] [nM] | EC50 ([1]; IFN-γ level in medium, read-out: PBMC EC50 IFN-γ) [nM] | EC50 [1, 5] [nM] | EC50 (WT STING [2]) [nM] | EC50 [1, 6] [nM] | EC50 [1, 7] [nM] | EC50 [1, 8] [nM] | EC50 (WT STING [3]) [nM]
1 | {[(1R,6R,8R,9R,10R,13E,15R,17R,18R)-8,17-bis(6-amino-9H-purin-9-yl)-9,18-difluoro-3,12-dioxo-3-({[(propan-2-yloxy)carbonyl]oxy}methoxy)-2,4,7,11,16-pentaoxa-3λ^5,12λ^5- diphosphatricyclo[13.3.0.0^6,^10]octadec-13-en-12-yl]oxy}methyl propan-2-yl carbonate [Compound 81c] | 600 | 1300 | 250 | 122 |  |  |  | 
2 | CCC(C)(C)C(=O)OCOP1(=O)/C=C/[C@H]2O[C@@H](n3cnc4c(N)ncnc43)[C@H](F)[C@@H]2OP(=O)(OCOC(=O)C(C)(C)CC)OC[C@H]2O[C@@H](n3cnc4c(N)ncnc43)[C@H](F)[C@@H]2O1 (single isomer, unassigned) [Compound 84b] | 80 |  | 70 | 10 | 60 |  |  | 
3 | CCC(C)(C)C(=O)OCOP1(=O)/C=C/[C@H]2O[C@@H](n3cnc4c(N)ncnc43)[C@H](F)[C@@H]2OP(=O)(OCOC(=O)C(C)(C)CC)OC[C@H]2O[C@@H](n3cnc4c(N)ncnc43)[C@H](F)[C@@H]2O1 (single isomer, unassigned) [Compound 84c] | 30 |  | 10 | 7 |  |  |  | 
4 | CC(C)(C)C(=O)OCOP1(=O)/C=C/[C@H]2O[C@@H](n3cnc4c(N)ncnc43)[C@H](F)[C@@H]2OP(=O)(OCOC(=O)C(C)(C)C)OC[C@H]2O[C@@H](n3cnc4c(N)ncnc43)C[C@@H]2O1 (stereo partly drawn) [Compound 86, {[(1R,6R,8R,10S,13E,15R,17R,18R)-8,17-bis(6-amino-9H-purin-9-yl)-3-{[(2,2-dimethylpropanoyl)oxy]methoxy}-18-fluoro-3,12-dioxo-2,4,7,11,16-pentaoxa-3λ^5,12λ^5-diphosphatricyclo[13.3.0.0^6,^10]octadec-13-en-12-yl]oxy}methyl 2,2-dimethylpropanoate] |  |  |  | 10 | 1600 | 600 | 800 | 
5 | Nc1ncnc2c1ncn2[C@@H]1O[C@@H]2COP(=O)(O)O[C@H]3C[C@H](n4cnc5c(N)ncnc54)O[C@@H]3/C=C/P(=O)(O)O[C@H]2[C@H]1F [Compound 61, (1S,6R,8R,9R,10R,13E,15R,17R)-8,17-bis(6-amino-9H-purin-9-yl)-9-fluoro-3,12-dihydroxy-2,4,7,11,16-pentaoxa-3λ^5,12λ^5-diphosphatricyclo[13.3.0.0^6,10]octadec-13-ene-3,12-dione] |  |  |  | > 200000 |  |  |  | 750
6 | CCCCCCCCCCCC(=O)OCOP1(=O)/C=C/[C@H]2O[C@@H](n3cnc4c(N)ncnc43)[C@H](F)[C@@H]2OP(=O)(OCOC(=O)CCCCCCCCCCC)OC[C@H]2O[C@@H](n3cnc4c(N)ncnc43)[C@H](F)[C@@H]2O1 (single isomer, unassigned) [Compound 85a] |  |  |  | 0.4 | 10 | 20 | 20 | 
7 | Nc1nc2c(ncn2[C@@H]2O[C@@H]3COP(=O)(O)O[C@H]4C[C@H](n5cnc6c(N)ncnc65)O[C@@H]4/C=C/P(=O)(O)O[C@H]3[C@H]2F)c(=O)[nH]1 [Compound 59, (1S,6R,8R,9R,10R,13E,15R,17R)-8-(2-amino-6-oxo-6,9-dihydro-1H-purin-9-yl)-17-(6-amino-9H-purin-9-yl)-9-fluoro-3,12-dihydroxy-2,4,7,11,16-pentaoxa-3λ^5, 12λ^5-diphosphatricyclo[13.3.0.0^6,^10]octadec-13-ene-3,12-dione] |  |  |  |  |  |  |  | 700
8 | CC1(C(=O)OCOP2(=O)/C=C/[C@H]3O[C@@H](n4cnc5c(N)ncnc54)[C@H](F)[C@@H]3OP(=O)(OCOC(=O)C3(C)CCCCC3)OC[C@H]3O[C@@H](n4cnc5c(N)ncnc54)[C@H](F)[C@@H]3O2)CCCCC1 (single isomer, unassigned) [Compound 82a] |  |  |  | 200 |  |  |  | 
9 | CC1(C(=O)OCOP2(=O)/C=C/[C@H]3O[C@@H](n4cnc5c(N)ncnc54)[C@H](F)[C@@H]3OP(=O)(OCOC(=O)C3(C)CCCCC3)OC[C@H]3O[C@@H](n4cnc5c(N)ncnc54)[C@H](F)[C@@H]3O2)CCCCC1 (single isomer, unassigned) [Compound 82c] |  |  |  | 15 | 70 | 100 | 60 | 
10 | CCC(C)(C)C(=O)OCOP1(=O)/C=C/[C@H]2O[C@@H](n3cnc4c(N)ncnc43)[C@H](F)[C@@H]2OP(=O)(OCOC(=O)C(C)(C)CC)OC[C@H]2O[C@@H](n3cnc4c(N)ncnc43)[C@H](F)[C@@H]2O1 (single isomer, unassigned) [Compound 84a] |  |  |  | 150 |  |  |  | 
11 | CCCCCCCCCCCC(=O)OCOP1(=O)/C=C/[C@H]2O[C@@H](n3cnc4c(N)ncnc43)[C@H](F)[C@@H]2OP(=O)(OCOC(=O)CCCCCCCCCCC)OC[C@H]2O[C@@H](n3cnc4c(N)ncnc43)[C@H](F)[C@@H]2O1 (single isomer, unassigned) [Compound 85b] |  |  |  | 3 |  |  |  | 
12 | Nc1ncnc2c1ncn2[C@@H]1O[C@@H]2/C=C/P(=O)(O)O[C@H]3C[C@H](n4cnc5c(N)ncnc54)O[C@@H]3COP(=O)(O)O[C@H]2[C@H]1F [Compound 60, (1R,6R,8R,10S,13E,15R,17R,18R)-8,17-bis(6-amino-9H-purin-9-yl)-18-fluoro-3,12-dihydroxy-2,4,7,11,16-pentaoxa-3λ^5,12λ^5-diphosphatricyclo[13.3.0.0^6,^10]octadec-13-ene-3,12-dione] |  |  |  | 71800 | 164000 | > 500000 | 100000 | 280
13 | CC(C)(C)C(=O)OCOP1(=O)/C=C/[C@H]2O[C@@H](n3cnc4c(N)ncnc43)[C@H](F)[C@@H]2OP(=O)(OCOC(=O)C(C)(C)C)OC[C@H]2O[C@@H](n3cnc4c(N)ncnc43)[C@H](F)[C@@H]2O1 (single isomer, unassigned) [Compound 80c] |  |  |  | 12 | 180 | 100 | 100 | 

— patent US20230303613A1, “3′3′ CYCLIC DINUCLEOTIDES WITH AN ALKENYLENE” (Institute of Organic Chemistry and Biochemistry AS CR, v.v.i, priority 2020, published 2023)
